Results as given in BindingDB's records for doi:10.1021/jm049768a (Eli Lilly, 2004).

molecular target: 3-phosphoinositide-dependent protein kinase 1 (Homo sapiens) (UniProt O15530); assay: Inhibition of human PDK-1

For `O=C1NC(=O)C(c2cnc3ccccn23)=C1c1cn2c3c(cccc13)CN(C(=O)N1CCCCC1)CC2` [3-Imidazo[1,2-a]pyridin-3-yl-4-[2-(piperidine-1-carbonyl)-1,2,3,4-tetrahydro-[1,4]diazepino[6,7,1-hi]indol-7-yl]-pyrrole-2,5-dione], which IC50 is on record?
Its IC50 is 4.3 µM.

For `CN(C)C(=O)N1CCn2cc(C3=C(c4cnc5ccccn45)C(=O)NC3=O)c3cccc(c32)C1` [7-(4-Imidazo[1,2-a]pyridin-3-yl-2,5-dioxo-2,5-dihydro-1H-pyrrol-3-yl)-3,4-dihydro-1H-[1,4]diazepino[6,7,1-hi]indole-2-carboxylic acid dimethylamide], which IC50 is on record?
The IC50 was > 20 µM.

With `CC(C)OC(=O)N1CCn2cc(C3=C(c4cnc5ccccn45)C(=O)NC3=O)c3cccc(c32)C1` [7-(4-Imidazo[1,2-a]pyridin-3-yl-2,5-dioxo-2,5-dihydro-1H-pyrrol-3-yl)-3,4-dihydro-1H-[1,4]diazepino[6,7,1-hi]indole-2-carboxylic acid isopropyl ester] as the molecule, how does the IC50 read?
The IC50 was 6.5 µM.
